Holding throughout (format): cell-based
Assay [1] concerns human metastatic melanoma (A2058, ATCC CRL-11147) cells. The assay can be described thus: Anti-cancer activity against A2058 cells. To be noted: A2058, read-out: Anti-cancer IC50. How it is done: Cytotoxicity of the test compounds was evaluated after 72 hour exposure to human metastatic melanoma (A2058, ATCC CRL-11147) cells.
A2058 cells were grown overnight (2,000 cells/well), and then incubated with the test compounds (range of concentrations) diluted in MEM Earle's supplemented with gentamycin (10 μg/mL), non-essential amino acids (1%), sodium pyruvate (1 mM), L-alanyl-Lglutamine (2 mM), but without FBS (total volume was 100 μl) for […]. Ten μL of CellTiter 96® AQueous One Solution Reagent (Promega, Madison, Wis., USA) was added, and the plates were then further incubated for 1 hour.
Absorbance was measured at 485 nm in a DTX 880 Multimode Detector. Results were calculated as % survival compared to negative (assay media) and positive (Triton X-100; Sigma-Aldrich) controls.

Assay [2] concerns Pseudomonas aeruginosa PA01, DSM 19880 (ATCC 15692). The assay can be described thus: MIC assay, antibiotic susceptible reference strain. As to conditions: Pseudomonas aeruginosa PA01, DSM 19880 (ATCC 15692); read-out: Antimicrobial activity (MIC) P. a. As for the experimental part: (§1) Working solutions of the test derivatives were prepared with up to 100% DMSO and stored at −20° C. If necessary, the solutions were heated to 40-80° C. before testing to facilitate complete dissolution. Double-distilled water was used in all dilutions prepared. […] A microdilution susceptibility test was used for MIC determination according to Clinical and Laboratory Standards Institute, “Methods for Dilution Antimicrobial Sisceptibility Tests for Bacteria That Graw Aerobically”, Approved Standard M07-A9, edition 2012, with modifications as described by Igumnova et al (Bioorg Med Chem, 2016, 24 (22), 5884-5894).
(§2) Briefly, the bacterial inoculum was adjusted to approximately 2.5-3×10^4 cells/mL in Mueller-Hinton broth (MHB, Difco Laboratories, USA), and incubated in a ratio of 1:1 with test derivatives in polystyrene 96-well flat-bottom microplates (NUNC, Roskilde, Denmark). Positive growth control (without test derivatives) and negative control (without bacteria) were included. The reference antibiotic was oxytetracycline hydrochloride (Sigma Aldrich, Saint Louis, Mo., USA). The microplates were incubated in an EnVision microplate reader (Perkin-Elmer, Turku, Finland) placed in an incubator set to 35° C. for 48 h. The MIC value was defined as the lowest concentration of derivative resulting in no bacterial growth as determined by OD600 measurement. All derivatives were tested in three parallels.

Assay [3] relates to Escherichia coli ATCC 25922. Description: MIC assay, antibiotic susceptible reference strain. To be noted: ATCC25922; Escherichia coli ATCC 25922; read-out: Antimicrobial activity (MIC) E. c. As for the experimental part: as §1, §2
In assay [4] the test system is Corynebacterium glutamicum ATCC 13032. Description: MIC assay, antibiotic susceptible reference strain. As to conditions: ATCC13032; Corynebacterium glutamicum ATCC 13032; read-out: Antimicrobial activity (MIC) C. g. How it is done:
as §1, §2

Assay [5] concerns Staphylococcus aureus ATCC 9144. The assay can be described thus: MIC assay, antibiotic susceptible reference strain. As to conditions: ATCC9144; Staphylococcus aureus ATCC 9144; read-out: Antimicrobial activity (MIC) S. a. As for the experimental part:
as §1, §2

Values after ≈ are worked out from the molar mass of the structure shown.

This passage reports IC50 and MIC results from patent US11072588B2, “Barbituric acid derivatives comprising cationic and lipophilic groups” (UNIVERSITETET I TROMSØ—NORGES ARKTISKE UNIVERSITET, priority 2017, dated 2021).

One may read the IC50 as the midpoint of a concentration-inhibition curve. As usually defined, the MIC is the least concentration at which growth counts as inhibited.

For `NCCCCN1C(=O)N(CCCCN)C(=O)C(CCCc2ccccc2)(CCCc2ccccc2)C1=O` [Compound 9], the IC50 in assay [1] is 2.9 µg/mL (≈ 5.72 µM).
For the compound `CN(C)[C@@H]1C(O)=C(C(N)=O)C(=O)[C@@]2(O)C(O)=C3C(=O)c4c(O)cccc4[C@@](C)(O)[C@H]3[C@H](O)[C@@H]12` [Oxytetracycline, reference compound], the MIC in assay [2] was 20 µg/mL (≈ 43.4 µM); in assay [3] it was 2.5 µg/mL (≈ 5.43 µM); in assay [4], 0.65 µg/mL (≈ 1.41 µM); in assay [5], 0.65 µg/mL (≈ 1.41 µM).
